The source of these data is publication PMC5755735, “Discovery of indolylpiperazinylpyrimidines with dual-target profiles at adenosine A2A and dopamine D2 receptors for Parkinson's disease treatment” (PLoS ONE, 2018).

In test [1] the target is T1, human A1 receptors expressed in CHO cells (Homo sapiens, UniProt P30542).
T1 sequence (P30542 1-326): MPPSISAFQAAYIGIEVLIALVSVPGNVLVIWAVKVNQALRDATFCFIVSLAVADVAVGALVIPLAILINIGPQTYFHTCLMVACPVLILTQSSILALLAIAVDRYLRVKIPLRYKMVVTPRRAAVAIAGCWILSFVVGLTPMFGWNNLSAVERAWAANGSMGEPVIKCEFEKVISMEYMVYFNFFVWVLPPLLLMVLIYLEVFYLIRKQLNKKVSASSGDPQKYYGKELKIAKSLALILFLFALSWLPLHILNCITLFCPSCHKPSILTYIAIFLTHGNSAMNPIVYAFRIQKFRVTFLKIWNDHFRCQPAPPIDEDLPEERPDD
Description: competition binding at human A1 adenosine receptors ([3H]CCPA displacement). To be noted: displacement of [3H]CCPA, 95% confidence limits, n = 3–6, read-out: Ki hA1. The method, then: (§1) A two-step procedure was adopted to prepare membrane for radioligand binding from cells stably transfected with human adenosine receptor subtypes (hA1, hA2A and hA3 expressed on CHO cells). Firstly, cell fragments and nuclei were removed by using low-speed centrifugation (1,000 g for 10 min). After that, crude membrane fraction from supernatant was then sedimented at 100,000 g for 30 min. The membrane pellet was subsequently re-suspended in the specific binding buffer, frozen in liquid nitrogen and stored at -80°C. For measurement of adenylyl cyclase activity in the hA2B receptors, one-step centrifugation procedure was used; the homogenate was sedimented for 30 min at 54,000 g. The so-obtained crude membrane pellet was re-suspended in 50 mM Tris/HCl, pH 7.4 and used for the adenylyl cyclase assay immediately.
(§2) Non-specific binding was determined using theophylline 1 mM. […] Non-specific binding was determined using N^6-R-phenylisopropyl adenosine (R-PIA) 100 μM. ^41 The binding of [^3H]HEMADO to CHO cells transfected with hA3 adenosine receptors was carried out as described earlier. […] Non-specific binding was determined using R-PIA 100 μM.
(§3) The assay mixture was then filtered through the built-in filter at the bottom of the 96-well microplate filtration system (Millipore Multiscreen MAFC) and washed three times with 200 μL of cold buffer. After addition of 20 μL of scintillator to the dried filter plates, the filter bound radioactivity was counted on a Wallac Micro-Beta counter. All Ki values were calculated by non-linear curve fitting with the program SCTFIT [45].
On the technique in general: Displacement assays read how much labelled ligand stays bound in the presence of the test substance.

In test [2] the target is T2, human A2B receptors expressed in CHO cells (Homo sapiens, UniProt P29275).
T2 sequence (P29275 1-332): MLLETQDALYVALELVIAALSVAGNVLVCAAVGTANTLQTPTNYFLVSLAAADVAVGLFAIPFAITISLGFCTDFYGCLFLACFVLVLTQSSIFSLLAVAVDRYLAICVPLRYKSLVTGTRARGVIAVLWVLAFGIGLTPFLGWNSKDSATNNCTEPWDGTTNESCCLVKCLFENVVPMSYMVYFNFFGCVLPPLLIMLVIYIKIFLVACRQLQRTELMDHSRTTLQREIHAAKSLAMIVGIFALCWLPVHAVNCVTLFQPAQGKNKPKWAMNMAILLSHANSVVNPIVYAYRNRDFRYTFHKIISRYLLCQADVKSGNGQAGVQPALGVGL
The test can be described thus: inhibition of NECA-stimulated adenylyl cyclase activity at hA2B.
Description: The membranes were incubated with about 150,000 cpm of [α-^32P]adenosine triphosphate ([α-^32P]ATP) and test compounds in different concentrations for 20 min. A non-linear regression analysis was applied to calculate the IC50 of the adenylyl cyclase activity assay. From the IC50 values, Ki values were then calculated using the Cheng and Prusoff equation [46].

Test [3] concerns the target human A2A receptors expressed in CHO cells (Homo sapiens, UniProt P29274). The test can be described thus: competition binding at human A2A adenosine receptors ([3H]NECA displacement). To be noted: for Ki: displacement of [3H]NECA, CHO cells, 95% confidence limits, n = 3–6, read-out: Ki hA2A; for hA1/hA2A / hA3/hA2A: selectivity ratio of Ki values. The procedure:
as §1, §2, §3

For test [4], the target named is T3, human A3 receptors expressed in CHO cells (Homo sapiens, UniProt P0DMS8).
T3 sequence (P0DMS8 1-318): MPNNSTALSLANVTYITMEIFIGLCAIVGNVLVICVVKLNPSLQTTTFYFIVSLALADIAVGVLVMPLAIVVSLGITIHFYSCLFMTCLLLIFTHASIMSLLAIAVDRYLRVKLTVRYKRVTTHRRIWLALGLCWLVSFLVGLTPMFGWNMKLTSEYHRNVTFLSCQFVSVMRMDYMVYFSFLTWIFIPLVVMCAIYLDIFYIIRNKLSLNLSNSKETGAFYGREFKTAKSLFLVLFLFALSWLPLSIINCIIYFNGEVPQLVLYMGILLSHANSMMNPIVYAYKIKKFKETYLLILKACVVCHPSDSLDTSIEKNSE
The test can be described thus: competition binding at human A3 adenosine receptors ([3H]HEMADO displacement). The note with it: displacement of [3H]HEMADO, 95% confidence limits, n = 3–6, read-out: Ki hA3. The method, then: as §1, §2, §3

A word on the Ki: it is the equilibrium dissociation constant of an inhibitor or competing ligand from its target.

human A2A receptors expressed in CHO cells, sequence (P29274 whole entry): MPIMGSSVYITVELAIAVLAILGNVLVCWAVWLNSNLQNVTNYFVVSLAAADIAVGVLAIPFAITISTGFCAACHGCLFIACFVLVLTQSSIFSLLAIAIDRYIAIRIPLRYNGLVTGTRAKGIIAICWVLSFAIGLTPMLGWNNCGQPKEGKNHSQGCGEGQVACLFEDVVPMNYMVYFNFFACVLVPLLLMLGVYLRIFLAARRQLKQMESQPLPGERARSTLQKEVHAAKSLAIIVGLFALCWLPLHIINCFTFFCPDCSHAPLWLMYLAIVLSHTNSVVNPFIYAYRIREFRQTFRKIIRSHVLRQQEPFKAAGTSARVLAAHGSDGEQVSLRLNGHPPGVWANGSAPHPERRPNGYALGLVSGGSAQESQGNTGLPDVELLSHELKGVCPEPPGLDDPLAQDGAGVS

Turning to `Cc1cc(C)nc(N2CCN(Cc3c[nH]c4ccccc34)CC2)n1` [Compound 9, 3‐{[4‐(4,6‐Dimethylpyrimidin‐2‐yl)piperazin‐1‐yl]methyl}‐1H‐indole], the Ki in test [1] is more than 100 µM; in test [2], more than 20 µM; in test [3], more than 30 µM; in test [4], more than 30 µM.
On to `Cc1ccc2[nH]c(C(=O)N3CCN(c4nc(C)cc(C)n4)CC3)cc2c1` [Compound 23, 2‐[4‐(4,6‐Dimethylpyrimidin‐2‐yl)piperazine‐1‐carbonyl]‐5‐methyl‐1H‐indole], for which the Ki is more than 100 µM in test [1], more than 20 µM in test [2], more than 100 µM in test [3] and more than 100 µM in test [4].
For `Cc1cc(C)nc(N2CCN(C(=O)c3cc4cccc([N+](=O)[O-])c4[nH]3)CC2)n1` [Compound 25, {2‐[4‐(4,6‐Dimethylpyrimidin‐2‐yl)piperazine‐1‐carbonyl]‐1H‐indol‐7‐yl}azinic acid], the Ki in test [1] is 4.82 µM; in test [2], more than 20 µM; in test [3], 29.7 µM; in test [4], more than 30 µM. Also, the hA1/hA2A in test [3] came to 0.16. For the same compound, in test [3], the hA3/hA2A was more than 1.
As to `Cc1cc(C)nc(N2CCN(C(=O)CCc3c[nH]c4ccccc34)CC2)n1` [Compound 7, 1‐[4‐(4,6‐Dimethylpyrimidin‐2‐yl)piperazin‐1‐yl]‐3‐(1H‐indol‐3-yl)propan‐1‐one], the Ki in test [2] was more than 20 µM; in test [3], more than 100 µM.
As for `Cc1cc(C)nc(N2CCN(C(=O)CCCc3c[nH]c4ccccc34)CC2)n1` [Compound 8, 1‐[4‐(4,6‐Dimethylpyrimidin‐2‐yl)piperazin‐1‐yl]‐4‐(1H‐indol‐3‐yl)butan‐1‐one], the results for the inhibition constant (Ki) in test [2] and in test [3] were more than 20 µM and more than 100 µM, respectively.
As for `Cc1cc(C)nc(N2CCN(C(=O)Cc3c[nH]c4cc(F)ccc34)CC2)n1` [Compound 19, 1‐[4‐(4,6‐Dimethylpyrimidin‐2‐yl)piperazin‐1‐yl]‐2‐(6‐fluoro‐1H‐indol‐3‐yl)ethan‐1‐one], the inhibition constant (Ki) was more than 100 µM in test [1], more than 20 µM in test [2], 26.9 µM in test [3] and more than 30 µM in test [4]. The hA1/hA2A in test [3] is more than 4. Besides, in test [3], the hA3/hA2A is more than 1.
On to `Cc1cc(C)nc(N2CCN(C(=O)c3c[nH]c4ccc(Cl)cc34)CC2)n1` [Compound 16, 5‐Chloro‐3‐[4‐(4,6‐dimethylpyrimidin‐2‐yl)piperazine‐1‐carbonyl]‐1H‐indole], for which the inhibitory constant (Ki) was more than 100 µM in test [1], more than 20 µM in test [2], 15.5 µM in test [3] and 19.5 µM in test [4]. In test [3], the hA1/hA2A is more than 7. The hA3/hA2A in test [3] is given as 1.26.
For the compound `COc1cccc2[nH]cc(C(=O)N3CCN(c4nc(C)cc(C)n4)CC3)c12` [Compound 13, 3‐[4‐(4,6‐Dimethylpyrimidin‐2‐yl)piperazine‐1‐carbonyl]‐4‐methoxy‐1H‐indole], the Ki in test [1] was more than 100 µM; in test [2], more than 20 µM; in test [3], 18.8 µM; in test [4], more than 30 µM. Moreover, in test [3], the hA1/hA2A is listed as more than 5. In addition, the hA3/hA2A in test [3] is given as more than 2.
With `Cc1cc(C)nc(N2CCN(CCc3c(C)[nH]c4ccccc34)CC2)n1` [Compound 10, 3‐{2‐[4‐(4,6‐Dimethylpyrimidin‐2‐yl)piperazin‐1‐yl]ethyl}‐2‐methyl‐1H‐indole], the Ki was more than 100 µM in test [1], more than 20 µM in test [2], 34.4 µM in test [3] and 39.8 µM in test [4]. For the same compound, the hA1/hA2A in test [3] is more than 3. Moreover, the hA3/hA2A in test [3] amounted to 1.16.
As to `Cc1cc(C)nc(N2CCN(C(=O)Cc3c(C)[nH]c4c(F)cc(Br)cc34)CC2)n1` [Compound 17, 2‐(5‐Bromo‐7‐fluoro‐2‐methyl‐1H‐indol‐3‐yl)‐1‐[4‐(4,6-dimethylpyrimidin‐2‐yl)piperazin‐1‐yl]ethan‐1‐one], the inhibitory constant (Ki) in test [1] is more than 100 µM; in test [2] it was more than 20 µM; in test [3], more than 100 µM; in test [4], more than 100 µM.
In the case of `COc1ccc2[nH]cc(C(=O)N3CCN(c4nc(C)cc(C)n4)CC3)c2c1` [Compound 14, 3‐[4‐(4,6‐Dimethylpyrimidin‐2‐yl)piperazine‐1‐carbonyl]‐5‐methoxy‐1H‐indole], the Ki was more than 100 µM in test [1], more than 20 µM in test [2], 12.7 µM in test [3] and more than 30 µM in test [4]. Also, the hA1/hA2A in test [3] is listed as more than 8. In addition, the hA3/hA2A in test [3] was more than 2.
As to `Cc1cc(C)nc(N2CCN(C(=O)Cc3c[nH]c4ccccc34)CC2)n1` [Compound 18, 1‐[4‐(4,6‐Dimethylpyrimidin‐2‐yl)piperazin‐1‐yl]‐2‐(1H‐indol‐3‐yl)ethan‐1‐one], the inhibitory constant (Ki) in test [1] was more than 100 µM; in test [2], more than 20 µM; in test [3], 27.6 µM; in test [4] it was more than 30 µM. In test [3], the hA1/hA2A is more than 4. For the same compound, the hA3/hA2A in test [3] is on record as more than 1. Moreover, in test [3] (versus compound 6), the “fold decrease in hA2A affinity” value was found to be 3.2 fold.
For `Cc1cc(C)nc(N2CCN(CCCCc3c[nH]c4ccccc34)CC2)n1` [Compound 12, 3‐{4‐[4‐(4,6‐Dimethylpyrimidin‐2‐yl)piperazin‐1‐yl]butyl}‐1H‐indole], the inhibition constant (Ki) in test [2] is more than 20 µM; in test [3] it was more than 100 µM.
On to `COc1ccc2[nH]c(C(=O)N3CCN(c4nc(C)cc(C)n4)CC3)cc2c1` [Compound 24, 2‐[4‐(4,6‐Dimethylpyrimidin‐2‐yl)piperazine‐1‐carbonyl]‐5‐methoxy‐1H‐indole], for which the Ki in test [1] is more than 30 µM; in test [2] it was more than 20 µM; in test [3], more than 30 µM; in test [4] it was more than 30 µM.
As for `COc1cccc2c(C(=O)N3CCN(c4nc(C)cc(C)n4)CC3)c[nH]c12` [Compound 20, 3‐[4‐(4,6‐Dimethylpyrimidin‐2‐yl)piperazine‐1‐carbonyl]‐7‐methoxy‐1H‐indole], the Ki in test [1] was more than 100 µM; in test [2] it was more than 20 µM; in test [3], 3.63 µM; in test [4], more than 30 µM. Besides, in test [3], the hA1/hA2A is more than 28. Further, in test [3], the hA3/hA2A is more than 8. For the same compound, the “fold improvement in hA2A affinity” value in test [3] (versus compound 5) is 3 fold.
In the case of `Cc1cc(C)nc(N2CCN(C(=O)Cc3c(C)[nH]c4ccc(F)cc34)CC2)n1` [Compound 15, 1‐[4‐(4,6‐Dimethylpyrimidin‐2‐yl)piperazin‐1‐yl]‐2‐(5‐fluoro‐2‐methyl‐1H‐indol‐3‐yl)ethan‐1‐one], the Ki in test [1] was more than 100 µM; in test [2], more than 20 µM; in test [3], 18.2 µM; in test [4], more than 30 µM. Further, the hA1/hA2A in test [3] is on record as more than 6. In addition, in test [3], the hA3/hA2A is recorded as more than 2.
Turning to `Cc1cc(C)nc(N2CCN(C(=O)c3cc4ccccc4[nH]3)CC2)n1` [Compound 21, 2‐[4‐(4,6‐Dimethylpyrimidin‐2‐yl)piperazine‐1‐carbonyl]‐1H‐indole], the Ki in test [1] is more than 100 µM; in test [2], more than 20 µM; in test [3], more than 100 µM; in test [4], more than 100 µM.
Take `Cc1cc(C)nc(N2CCN(CCCc3c[nH]c4ccccc34)CC2)n1` [Compound 11, 3‐{3‐[4‐(4,6‐Dimethylpyrimidin‐2‐yl)piperazin‐1‐yl]propyl}‐1H‐indole]: the Ki in test [2] is more than 20 µM; in test [3], more than 100 µM.
